Assay type in all cases: cell-based
In one experiment the target is T1, Cav1.3 (Homo sapiens, UniProt Q01668).
T1 construct: gene CACNA1D; human Cav1.3S (C-terminal short splice variant, exon 8b) α1 stably expressed in tsA-201 cells; with auxiliary β3 (rat) and α2δ1 (rabbit) subunits
The experiment in a line: whole-cell patch-clamp concentration-response, […] Ca2+, HP -89 mV, […] Hz. A general note: The patch-clamp technique gives a direct electrical read-out from membranes.

For another experiment, the target named is T2, Cav1.2 (Homo sapiens, UniProt Q13936).
T2 construct: gene CACNA1C; human Cav1.2 α1 stably expressed in tsA-201 cells; with auxiliary β3 (rat) and α2δ1 (rabbit) subunits
The description is as above.

For another experiment, the target named is T3, Cav2.3 (Homo sapiens, UniProt Q15878).
T3 construct: gene CACNA1E; Cav2.3e α1 transiently expressed in tsA-201 cells; with auxiliary β3 and α2δ1 subunits
The experiment in a line: whole-cell patch-clamp, […], […] Ca2+, HP -89 mV, […] Hz. To be noted: read-out: % remaining ICa / 10 μM.

Experimental findings from PMC12445503 (Channels, 2025) are described below.

T1 sequence (Q01668 whole entry, canonical isoform): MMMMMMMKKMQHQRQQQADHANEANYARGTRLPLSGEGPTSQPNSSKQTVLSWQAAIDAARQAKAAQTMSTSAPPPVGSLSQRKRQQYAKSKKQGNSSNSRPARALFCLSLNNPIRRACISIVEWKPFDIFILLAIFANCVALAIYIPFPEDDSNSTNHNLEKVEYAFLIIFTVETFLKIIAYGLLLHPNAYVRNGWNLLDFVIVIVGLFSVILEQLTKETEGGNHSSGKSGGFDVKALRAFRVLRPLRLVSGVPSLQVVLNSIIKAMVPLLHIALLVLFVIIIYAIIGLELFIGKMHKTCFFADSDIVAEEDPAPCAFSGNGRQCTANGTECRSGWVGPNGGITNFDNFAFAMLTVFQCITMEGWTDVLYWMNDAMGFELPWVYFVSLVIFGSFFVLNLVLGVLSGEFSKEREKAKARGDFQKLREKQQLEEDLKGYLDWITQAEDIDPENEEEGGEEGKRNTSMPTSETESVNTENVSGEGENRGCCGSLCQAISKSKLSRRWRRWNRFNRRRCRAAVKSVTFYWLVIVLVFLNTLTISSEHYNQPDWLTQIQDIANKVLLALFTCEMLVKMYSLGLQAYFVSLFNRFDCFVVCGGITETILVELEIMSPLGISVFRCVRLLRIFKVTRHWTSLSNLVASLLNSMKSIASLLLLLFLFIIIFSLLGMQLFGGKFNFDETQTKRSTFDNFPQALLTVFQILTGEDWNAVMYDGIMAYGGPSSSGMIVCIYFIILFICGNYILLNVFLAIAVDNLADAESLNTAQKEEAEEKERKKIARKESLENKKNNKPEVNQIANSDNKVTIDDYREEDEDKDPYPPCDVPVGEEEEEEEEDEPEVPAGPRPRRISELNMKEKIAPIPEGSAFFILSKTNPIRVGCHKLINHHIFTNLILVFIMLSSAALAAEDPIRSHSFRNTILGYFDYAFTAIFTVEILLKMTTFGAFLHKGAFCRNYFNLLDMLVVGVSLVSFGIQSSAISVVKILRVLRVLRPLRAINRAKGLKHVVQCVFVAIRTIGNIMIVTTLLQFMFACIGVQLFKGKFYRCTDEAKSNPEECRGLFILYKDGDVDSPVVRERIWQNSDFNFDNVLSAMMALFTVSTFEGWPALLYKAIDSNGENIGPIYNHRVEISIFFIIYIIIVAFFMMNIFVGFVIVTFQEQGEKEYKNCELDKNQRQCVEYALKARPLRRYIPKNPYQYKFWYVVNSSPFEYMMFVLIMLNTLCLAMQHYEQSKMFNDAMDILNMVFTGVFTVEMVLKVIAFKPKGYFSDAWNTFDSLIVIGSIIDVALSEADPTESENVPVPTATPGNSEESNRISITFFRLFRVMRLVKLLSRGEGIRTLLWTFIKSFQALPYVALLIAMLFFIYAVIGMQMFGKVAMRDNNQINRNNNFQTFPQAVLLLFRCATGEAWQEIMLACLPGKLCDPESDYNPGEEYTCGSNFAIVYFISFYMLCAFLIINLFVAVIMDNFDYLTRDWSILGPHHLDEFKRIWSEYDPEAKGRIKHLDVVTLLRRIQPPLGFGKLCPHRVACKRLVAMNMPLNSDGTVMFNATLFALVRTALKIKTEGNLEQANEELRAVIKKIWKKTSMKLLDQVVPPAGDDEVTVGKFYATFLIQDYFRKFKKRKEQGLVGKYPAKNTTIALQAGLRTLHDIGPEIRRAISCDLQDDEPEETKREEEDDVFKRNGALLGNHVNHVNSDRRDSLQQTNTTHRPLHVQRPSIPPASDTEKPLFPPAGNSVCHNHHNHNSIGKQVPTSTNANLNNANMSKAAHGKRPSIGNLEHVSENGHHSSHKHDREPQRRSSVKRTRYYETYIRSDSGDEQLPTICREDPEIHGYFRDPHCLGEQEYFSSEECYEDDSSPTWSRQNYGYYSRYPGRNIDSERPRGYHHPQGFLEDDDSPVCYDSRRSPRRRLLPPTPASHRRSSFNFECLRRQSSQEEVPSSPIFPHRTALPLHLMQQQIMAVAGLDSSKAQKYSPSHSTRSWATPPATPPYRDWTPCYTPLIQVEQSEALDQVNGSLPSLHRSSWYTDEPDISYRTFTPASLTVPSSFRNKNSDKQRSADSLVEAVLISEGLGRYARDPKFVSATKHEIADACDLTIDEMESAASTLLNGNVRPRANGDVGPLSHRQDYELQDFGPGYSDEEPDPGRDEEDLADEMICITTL
T1 sequence (P54287 whole entry partner, canonical isoform): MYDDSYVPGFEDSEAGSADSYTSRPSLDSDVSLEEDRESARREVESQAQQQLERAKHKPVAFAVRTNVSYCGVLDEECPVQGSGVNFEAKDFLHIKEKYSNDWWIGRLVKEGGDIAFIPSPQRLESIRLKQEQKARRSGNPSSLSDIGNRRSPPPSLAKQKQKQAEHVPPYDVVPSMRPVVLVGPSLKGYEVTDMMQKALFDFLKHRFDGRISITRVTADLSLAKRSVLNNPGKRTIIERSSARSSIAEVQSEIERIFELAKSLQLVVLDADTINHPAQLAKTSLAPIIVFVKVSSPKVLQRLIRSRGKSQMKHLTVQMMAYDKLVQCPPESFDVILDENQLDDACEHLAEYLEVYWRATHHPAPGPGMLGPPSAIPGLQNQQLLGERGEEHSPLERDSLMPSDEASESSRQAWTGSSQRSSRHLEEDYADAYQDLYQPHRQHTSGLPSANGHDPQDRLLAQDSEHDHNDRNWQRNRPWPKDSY
T1 sequence (P13806 27-960 partner): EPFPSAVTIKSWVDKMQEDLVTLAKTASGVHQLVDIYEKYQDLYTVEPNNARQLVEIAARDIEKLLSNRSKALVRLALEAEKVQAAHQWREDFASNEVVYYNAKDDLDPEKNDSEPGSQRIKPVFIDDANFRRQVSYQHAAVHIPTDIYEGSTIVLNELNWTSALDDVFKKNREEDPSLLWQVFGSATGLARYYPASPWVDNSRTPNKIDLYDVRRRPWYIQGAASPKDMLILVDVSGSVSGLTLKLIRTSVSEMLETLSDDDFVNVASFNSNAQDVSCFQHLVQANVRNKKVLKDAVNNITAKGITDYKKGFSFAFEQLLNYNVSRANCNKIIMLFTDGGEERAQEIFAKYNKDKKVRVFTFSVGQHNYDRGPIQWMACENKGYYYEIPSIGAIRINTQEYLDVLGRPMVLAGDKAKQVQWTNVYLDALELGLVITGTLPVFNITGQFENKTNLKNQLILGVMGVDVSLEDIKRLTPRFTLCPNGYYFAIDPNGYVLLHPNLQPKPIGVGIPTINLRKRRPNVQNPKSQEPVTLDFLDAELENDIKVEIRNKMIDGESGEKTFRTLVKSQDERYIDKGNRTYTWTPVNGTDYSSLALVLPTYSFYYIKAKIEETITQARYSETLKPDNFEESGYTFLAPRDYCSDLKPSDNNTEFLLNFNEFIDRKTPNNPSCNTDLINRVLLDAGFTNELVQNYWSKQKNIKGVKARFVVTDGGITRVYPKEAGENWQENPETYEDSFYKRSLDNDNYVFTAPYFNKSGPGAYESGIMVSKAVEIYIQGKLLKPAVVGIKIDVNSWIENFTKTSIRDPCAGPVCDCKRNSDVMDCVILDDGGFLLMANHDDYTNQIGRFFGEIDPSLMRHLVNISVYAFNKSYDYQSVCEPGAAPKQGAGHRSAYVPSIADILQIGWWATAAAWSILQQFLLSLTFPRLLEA
T1 sequence (P13806 961-1106 partner): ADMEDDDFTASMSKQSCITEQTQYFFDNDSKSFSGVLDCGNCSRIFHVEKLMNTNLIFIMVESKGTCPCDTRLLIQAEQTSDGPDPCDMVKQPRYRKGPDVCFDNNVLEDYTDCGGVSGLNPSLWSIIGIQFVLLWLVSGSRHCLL

Take `COC(=O)C1=C(C)NC(C)=C(C(=O)OC(C)C)C1c1cccc2nonc12` (stereo not shown) [isradipine]: the IC50 against Cav1.3 was 0.134 µM.
For `C=C[C@](C)(O)CC[C@@H]1[C@@]2(C)CCCC(C)(C)[C@@H]2CC[C@@]1(C)O` [sclareol], the IC50 worked out at 12.5 µM against Cav1.2 and 16.3 µM against Cav1.3. Further, the remaining activity at 10 µM at Cav2.3 stood at 36.7 ± 11.2%.

Usually IC50 stands for the concentration at which inhibition is half-maximal. Low readings indicate inhibition by little substance, high ones a need for much substance.
